Publication PMC9127750, “Structure-based design of CDC42 effector interaction inhibitors for the treatment of cancer” (Cell reports, 2022)
Several values for one entry are separate records, joined by “and”; a condition that tells them apart may be missing. Equal values may be shown once.

Tested on: WM3248 melanoma cells, 486 antibodies
Assay: Reverse phase protein arrays (RPPA)
Assay type: cell-based, Human
Conditions: normalized to 0
Description: Pellets were snap frozen in liquid nitrogen and shipped to MD Anderson Cancer Center core RPPA facility for RPPA analysis (Table S5). Three biological replicates for each sample were generated.
Nomenclatures on the RPPA heatmaps: name_of_antibody.species_of_antibody.status_of_antibody. V - antibody validated; C - validation of antibody in progress; Q - antibody nonspecific; E – under evaluation; antibodies raised in M - mouse, G - goat, R - rabbit, or T - rat.

## CN(C)c1cccc(Nc2cc(-c3ccccc3)nc(C3CCNCC3)n2)c1 [ARN22089, N1,N1-dimethyl-N3-(6-phenyl-2-(piperidin-4-yl)pyrimidin-4-yl)benzene-1,3-diamine]
5, average
  EMA.M.C Norm_5 Average: 0.850
  ENY2.M.C Norm_5 Average: 0.965
  ER.a.R.V Norm_5 Average: 1.001
  ERCC1.R.C Norm_5 Average: 0.948
  ERCC5.R.C Norm_5 Average: 1.084
  ERRalpha.R.V Norm_5 Average: 0.950
  EVI1.R.V Norm_5 Average: 0.922
  Elk1_pS383.R.C Norm_5 Average: 1.032
  Enolase.1.R.V Norm_5 Average: 1.052
  Enolase.2.R.V Norm_5 Average: 0.966
  EphA2.R.V Norm_5 Average: 0.884
  EphA2_pS897.R.C Norm_5 Average: 0.843
  EphA2_pY588.R.C Norm_5 Average: 0.929
  Erk5.R.V Norm_5 Average: 1.026
  FABP5.R.C Norm_5 Average: 0.959
  FAK.R.C Norm_5 Average: 0.977
  FAK_pY397.R.V Norm_5 Average: 0.931
  FANCD2.R.V Norm_5 Average: 0.930
  FASN.R.V Norm_5 Average: 1.111
  FGF.basic.R.C Norm_5 Average: 0.987
  FN14.R.C Norm_5 Average: 1.118
  FOXM1.R.V Norm_5 Average: 0.915
  FOXO3.R.V Norm_5 Average: 1.012
  FRS2.alpha_pY196.R.V Norm_5 Average: 0.996
  FTO.R.V Norm_5 Average: 1.020
  Fibronectin.R.V Norm_5 Average: 1.193
  FoxO3a_pS318_S321.R.C Norm_5 Average: 0.972
  G6PD.R.V Norm_5 Average: 0.950
  GATA3.M.V Norm_5 Average: 1.077
  GATA6.R.V Norm_5 Average: 0.971
  GCLM.R.V Norm_5 Average: 0.967
  GCN5L2.R.V Norm_5 Average: 1.021
  GGPS1.M.V Norm_5 Average: 0.977
  GRB2.R.V Norm_5 Average: 1.022
  GRB7.R.V Norm_5 Average: 0.976
  GSK.3a.b.M.V Norm_5 Average: 0.937
  GSK.3a.b_pS21_S9.R.V Norm_5 Average: 1.111
  Gab2.R.V Norm_5 Average: 1.100
  Gli1.R.C Norm_5 Average: 0.999
  Gli3.R.C Norm_5 Average: 1.056
  Glucocorticoid.Receptor.R.V Norm_5 Average: 1.053
  Glutamate.D1.2.R.V Norm_5 Average: 0.990
  Grp75.R.C Norm_5 Average: 1.021
  Gys.R.V Norm_5 Average: 0.987
  Gys_pS641.R.V Norm_5 Average: 0.978
  H2AX_pS139.R.C Norm_5 Average: 1.026
  H2AX_pS140.M.C Norm_5 Average: 0.967
  HER2.M.V Norm_5 Average: 0.971
  HER2_pY1248.R.V Norm_5 Average: 1.023
  HER3.R.V Norm_5 Average: 0.924
  HER3_pY1289.R.C Norm_5 Average: 1.060
  HES1.R.V Norm_5 Average: 1.168
  eEF2.R.C Norm_5 Average: 1.217
  eEF2K.R.V Norm_5 Average: 1.024
  eIF4E.R.V Norm_5 Average: 1.028
  eIF4E_pS209.R.V Norm_5 Average: 0.945
5, replicates 1-3
  DNMT1.R.V Norm_5: 0.988 and 0.998 and 1.098
  DRP1.R.V Norm_5: 0.998 and 1.001
  DUSP4.R.V Norm_5: 1.082 and 1.118 and 1.119
  DUSP6.R.C Norm_5: 1.285 and 1.005 and 1.269
  DYRK1B.R.C Norm_5: 0.880 and 0.877 and 1.004
  Dvl3.R.V Norm_5: 0.981 and 1.018 and 0.968
  E2F1.R.V Norm_5: 0.990 and 0.958 and 0.964
  E.Cadherin.R.V Norm_5: 0.812 and 0.783 and 0.958
  EGFR.R.V Norm_5: 0.998 and 1.139 and 0.952
  EGFR_pY1068.R.C Norm_5: 0.901 and 0.903 and 1.000
  EGFR_pY1173.R.V Norm_5: 1.024 and 1.026 and 1.016
  EMA.M.C Norm_5: 0.673 and 0.895 and 0.983
  ENY2.M.C Norm_5: 0.935 and 1.052 and 0.908
  ER.a.R.V Norm_5: 0.980 and 1.004 and 1.018
  ER.a_pS118.R.V Norm_5: 1.247
  ERCC1.R.C Norm_5: 0.895 and 0.962 and 0.988
  ERCC5.R.C Norm_5: 1.145
  ERRalpha.R.V Norm_5: 0.932 and 0.933 and 0.985
  EVI1.R.V Norm_5: 0.871 and 0.956 and 0.940
  Elk1_pS383.R.C Norm_5: 1.029
  Enolase.1.R.V Norm_5: 1.006 and 1.195 and 0.954
  Enolase.2.R.V Norm_5: 0.936 and 1.012
  EphA2.R.V Norm_5: 0.843 and 0.933 and 0.875
  EphA2_pS897.R.C Norm_5: 0.767 and 0.950 and 0.814
  EphA2_pY588.R.C Norm_5: 0.881 and 0.946 and 0.960
  Erk5.R.V Norm_5: 0.987 and 1.054
  Ets.1.R.V Norm_5: 1.139 and 1.226 and 0.851
  FABP5.R.C Norm_5: 1.017 and 1.210 and 0.650
  FAK.R.C Norm_5: 0.898 and 1.113 and 0.922
  FAK_pY397.R.V Norm_5: 0.881 and 0.907 and 1.006
  FANCD2.R.V Norm_5: 0.905 and 0.913 and 0.972
  FASN.R.V Norm_5: 1.237 and 1.011 and 1.085
  FGF.basic.R.C Norm_5: 0.849
  FN14.R.C Norm_5: 1.117 and 1.165
  FOXM1.R.V Norm_5: 0.776 and 0.924 and 1.046
  FOXO3.R.V Norm_5: 0.964 and 1.056 and 1.017
  FRS2.alpha_pY196.R.V Norm_5: 0.883 and 1.011
  FTO.R.V Norm_5: 1.133 and 0.883
  Fibronectin.R.V Norm_5: 1.256 and 1.230
  FoxO3a_pS318_S321.R.C Norm_5: 0.972 and 1.006
  G6PD.R.V Norm_5: 0.921 and 1.016 and 0.913
  GATA3.M.V Norm_5: 1.233 and 0.961
  GATA6.R.V Norm_5: 0.980 and 0.952 and 0.979
  GCLC.R.C Norm_5: 1.128 and 0.940
  GCLM.R.V Norm_5: 0.953 and 1.003
  GCN5L2.R.V Norm_5: 0.975 and 1.052
  GGPS1.M.V Norm_5: 0.942
  GRB2.R.V Norm_5: 0.966 and 1.023 and 1.076
  GRB7.R.V Norm_5: 1.030 and 0.936 and 0.962
  GSK.3B.R.C Norm_5: 0.980 and 1.031 and 1.125
  GSK.3a.b.M.V Norm_5: 1.010 and 0.971 and 0.830
  GSK.3a.b_pS21_S9.R.V Norm_5: 1.277 and 1.230
  Gab2.R.V Norm_5: 1.236 and 1.059 and 1.006
  Gli1.R.C Norm_5: 0.936 and 0.961 and 1.099
  Gli3.R.C Norm_5: 1.128 and 1.124 and 0.916
  Glucocorticoid.Receptor.R.V Norm_5: 1.063 and 1.061 and 1.034
  Glutamate.D1.2.R.V Norm_5: 1.128 and 0.932
  Glutaminase.R.C Norm_5: 1.249 and 0.891
  Granzyme.B.R.V Norm_5: 1.216 and 0.936
  Grp75.R.C Norm_5: 0.988 and 1.124 and 0.950
  Gys.R.V Norm_5: 0.964 and 0.981 and 1.016
  Gys_pS641.R.V Norm_5: 1.014 and 0.854
  H2AX_pS139.R.C Norm_5: 1.023 and 1.013
  H2AX_pS140.M.C Norm_5: 0.966 and 1.110 and 0.827
  HER2.M.V Norm_5: 0.993 and 0.940 and 0.980
  HER2_pY1248.R.V Norm_5: 0.876 and 1.016
  HER3.R.V Norm_5: 0.898 and 0.946 and 0.928
  HER3_pY1289.R.C Norm_5: 1.034 and 1.212 and 0.933
  HES1.R.V Norm_5: 1.299 and 1.047 and 1.158
  Heregulin.R.V Norm_5: 1.014 and 1.131 and 1.059
  eEF2.R.C Norm_5: 1.519 and 1.622 and 0.509
  eEF2K.R.V Norm_5: 1.078 and 1.168
  eIF4E.R.V Norm_5: 0.986 and 1.010
  eIF4E_pS209.R.V Norm_5: 0.988 and 0.981
  eIF4G.R.C Norm_5: 1.060 and 1.058 and 1.164
10, average
  DNMT1.R.V Norm_10 Average: 1.056
  DRP1.R.V Norm_10 Average: 0.998
  DUSP4.R.V Norm_10 Average: 0.891
  DUSP6.R.C Norm_10 Average: 1.050
  DYRK1B.R.C Norm_10 Average: 0.948
  Dvl3.R.V Norm_10 Average: 0.962
  E2F1.R.V Norm_10 Average: 1.083
  E.Cadherin.R.V Norm_10 Average: 0.939
  EGFR.R.V Norm_10 Average: 0.975
  EGFR_pY1068.R.C Norm_10 Average: 0.957
  EMA.M.C Norm_10 Average: 0.953
  ER.a.R.V Norm_10 Average: 0.921
  ERCC5.R.C Norm_10 Average: 0.962
  ERRalpha.R.V Norm_10 Average: 1.014
  EVI1.R.V Norm_10 Average: 1.011
  Elk1_pS383.R.C Norm_10 Average: 0.998
  Enolase.1.R.V Norm_10 Average: 1.160
  EphA2.R.V Norm_10 Average: 0.919
  EphA2_pS897.R.C Norm_10 Average: 0.866
  EphA2_pY588.R.C Norm_10 Average: 0.941
  Erk5.R.V Norm_10 Average: 0.877
  Ets.1.R.V Norm_10 Average: 1.306
  FABP5.R.C Norm_10 Average: 1.237
  FAK.R.C Norm_10 Average: 0.954
  FANCD2.R.V Norm_10 Average: 0.930
  FASN.R.V Norm_10 Average: 0.962
  FGF.basic.R.C Norm_10 Average: 0.946
  FOXM1.R.V Norm_10 Average: 0.929
  FOXO3.R.V Norm_10 Average: 1.081
  FRS2.alpha_pY196.R.V Norm_10 Average: 1.373
  FTO.R.V Norm_10 Average: 1.099
  Fibronectin.R.V Norm_10 Average: 1.015
